The values below come from ChEMBL document CHEMBL4396955, “Novel thiazolidines: Synthesis, antiproliferative properties and 2D-QSAR studies” (Bioorg Med Chem, 2019).

Bounds are passed on as bounds.

In experiment [1] the test system is MCF7. Put plainly: Antiproliferative activity against human MCF7 cells assessed as reduction in cell growth incubated for 72 hrs by MTT assay. The experiment is classed as functional, cell-based. The note with it: MCF7, 72 h. A general note: Tetrazolium assays rely on reduction of a dye to a coloured formazan, in cell work by metabolically active cells.
The next experiment relates to HCT-116. Put plainly: Antiproliferative activity against human HCT116 cells assessed as reduction in cell growth incubated for 72 hrs by MTT assay. The experiment is classed as functional, cell-based. The note with it: HCT-116, 72 h.
The next experiment concerns TERT-RPE1. Put plainly: Cytotoxicity against human RPE1 cells assessed as reduction in cell growth incubated for 72 hrs by MTT assay. The experiment is classed as cell-based. The note with it: RPE-1, 72 h.
For experiment [2], the target named is T1, Peroxisome proliferator-activated receptor gamma (Homo sapiens, UniProt P37231).
T1 sequence (P37231 whole entry): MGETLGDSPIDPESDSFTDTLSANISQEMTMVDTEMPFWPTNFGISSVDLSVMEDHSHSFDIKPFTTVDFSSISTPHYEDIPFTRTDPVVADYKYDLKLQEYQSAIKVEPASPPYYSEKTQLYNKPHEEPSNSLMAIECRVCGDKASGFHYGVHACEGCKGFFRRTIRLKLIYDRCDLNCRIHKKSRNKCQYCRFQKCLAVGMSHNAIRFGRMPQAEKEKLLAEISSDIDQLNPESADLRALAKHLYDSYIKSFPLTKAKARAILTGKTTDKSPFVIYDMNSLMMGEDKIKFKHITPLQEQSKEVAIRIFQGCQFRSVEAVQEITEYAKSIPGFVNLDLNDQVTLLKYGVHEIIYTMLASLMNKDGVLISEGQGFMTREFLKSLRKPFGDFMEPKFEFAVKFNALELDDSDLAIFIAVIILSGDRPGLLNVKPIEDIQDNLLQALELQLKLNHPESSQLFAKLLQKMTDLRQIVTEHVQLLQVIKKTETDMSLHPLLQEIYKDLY
Put plainly: Antagonist activity at human PPARgamma LBD expressed in yeast AH109 cells assessed as reduction in rosiglitazone-stimulated PPARgamma/CBP interaction by measuring alpha galactosidase activity using PNP-alpha-Gal as substrate by alpha-galactosidase based yeast-two hybrid assay. The experiment is classed as cell-based.

Experiment [3] concerns MCF7. Put plainly: Antiproliferative activity against human MCF7 cells assessed as reduction in cell growth incubated for 48 hrs by MTT assay. The experiment is classed as functional, cell-based. The note with it: MCF7, 48 h.

`COc1ccc(/C=C2\S/C(=N\c3ccc(C)cc3)N(C)C2=O)cc1`: the 50% inhibitory concentration (IC50) in the experiment on MCF7 [1], in the experiment with HCT-116 and in the experiment with TERT-RPE1 was more than 100 µM in each case.
In the case of `COc1ccc(/C=C2/CN(C)/C(=N/c3ccc(Cl)cc3)S2)cc1`, the concentration for half-maximal inhibition (IC50) (in general, the concentration at which inhibition is half-maximal) amounted to 7.6 µM in the experiment on MCF7 [1], 9.8 µM in the experiment with HCT-116 and 39.6 µM in the experiment on TERT-RPE1.
The like results for `C=C1CN/C(=N/c2ccccc2)S1` were, in that order, more than 100 µM, more than 100 µM and more than 100 µM.
The like results for `COc1ccc(/C=C2\S/C(=N\c3ccc(OC)cc3)N(C)C2=O)cc1` were, in that order, more than 100 µM, more than 100 µM and more than 100 µM.
The like results for `C=C1CN(C)/C(=N/c2ccccc2)S1` were, in that order, more than 100 µM, more than 100 µM and more than 100 µM.
With `C=CC/N=C1\S/C(=C\c2ccc(OC)cc2)C(=O)N1C`, the values for the IC50 in the experiment with MCF7 [1], with HCT-116 and in the experiment on TERT-RPE1 were more than 100 µM, 79.3 µM and more than 100 µM, respectively.
Consider `COc1ccc(/C=C2\S/C(=N\c3ccc(F)cc3)N(C)C2=O)cc1`, for which the values for the IC50 in the experiment on MCF7 [1], in the experiment on HCT-116 and in the experiment with TERT-RPE1 were 66.5 µM, 13.3 µM and more than 100 µM, respectively.
For `FC(F)(F)c1cc(/N=C2/NC/C(=C/c3ccccc3)S2)cc(C(F)(F)F)c1`, the IC50 is 13.5 µM in the experiment on MCF7 [1], 16.1 µM in the experiment on HCT-116 and 32.8 µM in the experiment on TERT-RPE1.
The like results for `COc1ccc(/C=C2/CN(C)/C(=N/c3ccc(F)cc3)S2)cc1` were, in that order, 8 µM, 10 µM and 42.8 µM.
The like results for `COc1ccc(/C=C2\S/C(=N\c3ccccc3)N(C)C2=O)cc1` were, in that order, more than 100 µM, more than 100 µM and more than 100 µM.
Consider `O=c1[nH]cc(F)c(=O)[nH]1` [FLUOROURACIL], for which the IC50 came out at 3.2 µM in the experiment on MCF7 [1] and 20.4 µM in the experiment with HCT-116.
In the case of `COc1ccc(/C=C2/CN(C)/C(=N/c3ccc(C(F)(F)F)cc3)S2)cc1`, the figures for the IC50 in the experiment on MCF7 [1], in the experiment on HCT-116 and in the experiment with TERT-RPE1 were 24.1 µM, 34.3 µM and 72 µM, respectively.
For `COc1ccc(/C=C2\S/C(=N\c3ccc(Cl)cc3)N(C)C2=O)cc1`, the IC50 was 39.3 µM in the experiment with MCF7 [1], 10.4 µM in the experiment with HCT-116 and more than 100 µM in the experiment with TERT-RPE1.
The like results for `C=CC/N=C1/NCC(=C)S1` were, in that order, more than 100 µM, more than 100 µM and more than 100 µM.
On to `COc1ccc(/C=C2\S/C(=N\c3cc(C(F)(F)F)cc(C(F)(F)F)c3)N(C)C2=O)cc1`, for which the half-inhibitory concentration (IC50) in the experiment on MCF7 [1] was 77.8 µM; with HCT-116, more than 100 µM; with TERT-RPE1 it was more than 100 µM.
As for `S=C(Nc1ccccc1)N1C/C(=C/c2ccccc2)S/C1=N\c1ccccc1`, the IC50 with MCF7 [1], in the experiment on HCT-116 and in the experiment with TERT-RPE1 was more than 100 µM throughout.
Consider `COc1ccc(/C=C2/CN(C)/C(=N/c3ccc(OC)cc3)S2)cc1`, for which the concentration for half-maximal inhibition (IC50) with MCF7 [1] was determined as 8.7 µM; in the experiment with HCT-116, 15.9 µM; in the experiment with TERT-RPE1, 65.9 µM.
The like results for `COc1ccc(/C=C2\S/C(=N\c3ccc(C(C)(C)C)cc3)N(C)C2=O)cc1` were, in that order, more than 100 µM, more than 100 µM and 46.7 µM.
As for `COc1ccc(/C=C2/CN(C)/C(=N/c3ccc(Br)cc3)S2)cc1`, the IC50 in the experiment with MCF7 [1] is 7.4 µM; in the experiment with HCT-116, 8.9 µM; with TERT-RPE1 it was 61.3 µM.
The like results for `COc1ccc(/C=C2\S/C(=N\c3c(C)cccc3C)N(C)C2=O)cc1` were, in that order, more than 100 µM, more than 100 µM and more than 100 µM.
The like results for `COc1ccc(/C=C2/CN(C)/C(=N/c3ccc(C(C)(C)C)cc3)S2)cc1` were, in that order, 28.7 µM, 25.9 µM and 23.5 µM.
The like results for `COc1ccc(/C=C2\S/C(=N\c3ccc(C)c(Cl)c3)N(C)C2=O)cc1` were, in that order, more than 100 µM, 14.1 µM and 23 µM.
Turning to `COc1ccc(/C=C2/CN(C)/C(=N/c3ccc(C)cc3)S2)cc1`, the results for the IC50 with MCF7 [1], with HCT-116 and in the experiment on TERT-RPE1 were 7.6 µM, 11.1 µM and 65.7 µM, respectively.
Take `CCOc1cc(/C=C2\S/C(=N/c3ccc(Cl)c(C(=O)O)c3)N(C)C2=O)cc(Cl)c1O`: the IC50 in experiment [2] came out at 7.97 µM; in the experiment with MCF7 [3] it was 108 µM.
Take `COc1ccc(/C=C2/CN(C)/C(=N/c3ccc([N+](=O)[O-])cc3)S2)cc1`: the values for the IC50 with MCF7 [1], in the experiment with HCT-116 and in the experiment on TERT-RPE1 were 9.8 µM, 10.2 µM and more than 100 µM, respectively.
The like results for `COc1ccc(/C=C2\S/C(=N\c3ccc(Br)cc3)N(C)C2=O)cc1` were, in that order, more than 100 µM, 17 µM and more than 100 µM.
